According to the NIST ThermoML archive (doi:10.1021/je9006585):
± gives the expanded uncertainty stated by the source.

Conditions: Crystal; visual observation

Normal melting temperature: 142.2 ± 1.5 °C
SMILES: C[n+]1ccn(CCCn2cc[n+](C)c2)c1.F[P-](F)(F)(F)(F)F.F[P-](F)(F)(F)(F)F
